Test results reported in US20190298708A1, “METHODS OF TREATING SUBJECTS WITH AN ELEVATED NEUROFILAMENT LIGHT CHAIN LEVEL” (Coherus Biosciences, Inc., priority 2018, published 2019).

Assays:
[1] = tested on: neurofilament light chain (NFL); experiment: Blood NFL measurement by Simoa assay in RRMS patients given CHS-131; type: in vivo, human
Protocol: Capture monoclonal antibody (mAB) 47: 3 is buffer exchanged and diluted to 0.3 mg/mL 4×10^6 paramagnetic beads (Quanterix Corporation) are buffer exchanged and activated using 0.5 mg/mL 1-ethyl-3-(3-dimetylaminopropyl) carbodiimide (Quanterix), followed by a 30-minute incubation at room temperature (HulaMixer, Thermo Fischer Scientific). The diluted capture mAB 47:3 is conjugated with the washed and activated paramagnetic beads for a 2-hour incubation at room temperature on a mixer. After the incubation, the beads are washed three times using a magnetic separator and blocked. Next, the conjugated beads are suspended and stored at 4° C.
The Simoa assay is run on a Simoa HD-1 instrument (Quanterix) using a two-step Assay Neat 20 protocol. Briefly, 100 μL of calibrator/sample in Tris-buffered saline (TBS), 0.1% Tween 20, 1% milk powder, 400 μg/mL Heteroblock (Omega Biologicals), 25 μL conjugated beads in TBS, 0.1% Tween 20, 1% milk powder, 300 μg/mL Heteroblock, and 20 μL of mAB 2:1 (0.1 μg/mL in TBS, 0.1% Tween 20, 1% milk powder, 300 μg/mL Heteroblock) are incubated for 35 minutes 15 seconds (47 cadences with 1 cadence is 45 seconds). Next, the mixture is washed. Then, 100 μL of streptavidin-conjugated […] (150 pM; Quanterix) is added, followed by a 5 minutes 15 second (7-cadence) incubation and wash. The mixture will then be placed on a Simoa HD-1 instrument. Prior to reading, 25 μL Resorufin (3-D-galactopyranoside (Quanterix) is added. The calibrator curve is constructed using the standard from the NFL ELISA (NF-light, UmanDiagnostics). Samples and calibrators are measured in duplicates.
(§1) Serum Nfl levels were investigated in longitudinal blood samples. The aims of this study include: • to explore the predictive value of blood NFL concentrations in patients treated with CHS-131 (also known as INT-131), • to determine the kinetics of the response to CHS-131, • to analyze NFL as a marker for the effectiveness of CHS-131 in relapsing-remitting multiple sclerosis (RRMS) patients, • to assess the value of NFL concentrations in comparing the effectiveness of CHS-131 with the effectiveness of placebo, • to correlate blood NFL with radiological and clinical outcome parameters (such as magnetic resonance imaging (MRI) (Gd+ lesion counts, T2 lesion volume), annualized relapse rate (ARR), brain atrophy and correlation with expanded disability status scale (EDSS), • to examine the prognostic value of NFL concentrations by stratification of patients related to disease activity, • to determine the risk of relapse or risk of disease progression, and • to evaluate NFL concentrations as a retreatment predictive biomarker.
All patients receiving CHS-131 were orally adminisntered 1 mg or 3 mg CHS-131 daily. All control patients were orally administered a placebo tablet once a day. All patients enrolled in the study were treatment-naïve RRMS for <3 years.
The human plasma samples used for the analysis were coded and are not individually identifiable because neither the investigator nor any other individuals associated with the investigation or the sponsor can link the specimen to the subject from whom the specimen was collected, either directly or indirectly through coding systems.
The concentration of NFL […] in subject administered placebo, 1 mg daily CHS-131, and 3 mg daily CHS-131 are reported in Tables 1, 2, and 3, respectively.

[2] = tested on: relapsing-remitting multiple sclerosis (RRMS) patients; experiment: Correlation of NFL concentration with CE and T2 lesions and EDSS; type: in vivo, human; conditions: after six months of treatment, all groups combined
From the text: as §1, with “biomarker. The correlation between NFL concentration and CE and T2 lesions was evaluated after six months of treatment with CHS-131 (all groups combined). […] The correlation between NFL concentration and EDSS was evaluated after six months of treatment with CHS-131 (all groups combined). […] Increased EDSS indicates increased disability, therefore lowering EDSS is considered effective treatment of multiple sclerosis.” for “biomarker.”

[3] = 1 mg daily CHS-131 oral, Wk0, RRMS patients
[4] = 1 mg daily CHS-131 oral, Wk12, RRMS patients
[5] = 1 mg daily CHS-131 oral, Wk24, RRMS patients
[6] = 1 mg daily CHS-131 oral, Wk48, RRMS patients
[7] = 3 mg daily CHS-131 oral, Wk0, RRMS patients
[8] = 3 mg daily CHS-131 oral, Wk12, RRMS patients
[9] = 3 mg daily CHS-131 oral, Wk24, RRMS patients
[10] = 3 mg daily CHS-131 oral, Wk48, RRMS patients

O=S(=O)(Nc1cc(Cl)c(Oc2cnc3ccccc3c2)c(Cl)c1)c1ccc(Cl)cc1Cl [CHS-131]
concentration of NFL, Max [1, 3]: 29 pg/mL | concentration of NFL, Mean [1, 3]: 20.8 pg/mL | concentration of NFL, Median [1, 3]: 19.4 pg/mL | concentration of NFL, Min [1, 3]: 13.3 pg/mL | concentration of NFL, Q1 [1, 3]: 19.3 pg/mL | concentration of NFL, Q3 [1, 3]: 22.8 pg/mL | concentration of NFL, Max [1, 4]: 160 pg/mL | concentration of NFL, Mean [1, 4]: 27.6 pg/mL | concentration of NFL, Median [1, 4]: 17.9 pg/mL | concentration of NFL, Min [1, 4]: 2.1 pg/mL | concentration of NFL, Q1 [1, 4]: 11.7 pg/mL | concentration of NFL, Q3 [1, 4]: 32.2 pg/mL | concentration of NFL, Max [1, 5]: 65.5 pg/mL | concentration of NFL, Mean [1, 5]: 22.3 pg/mL | concentration of NFL, Median [1, 5]: 17 pg/mL | concentration of NFL, Min [1, 5]: 3.2 pg/mL | concentration of NFL, Q1 [1, 5]: 11.8 pg/mL | concentration of NFL, Q3 [1, 5]: 31.5 pg/mL | concentration of NFL, Max [1, 6]: 340 pg/mL | concentration of NFL, Mean [1, 6]: 27.6 pg/mL | concentration of NFL, Median [1, 6]: 17.5 pg/mL | concentration of NFL, Min [1, 6]: 2.6 pg/mL | concentration of NFL, Q1 [1, 6]: 10.1 pg/mL | concentration of NFL, Q3 [1, 6]: 24.2 pg/mL | concentration of NFL, Max [1, 7]: 73.7 pg/mL | concentration of NFL, Mean [1, 7]: 29.9 pg/mL | concentration of NFL, Median [1, 7]: 19.6 pg/mL | concentration of NFL, Min [1, 7]: 11.7 pg/mL | concentration of NFL, Q1 [1, 7]: 11.8 pg/mL | concentration of NFL, Q3 [1, 7]: 48.1 pg/mL | concentration of NFL, Max [1, 8]: 117 pg/mL | concentration of NFL, Mean [1, 8]: 23.2 pg/mL | concentration of NFL, Median [1, 8]: 16.4 pg/mL | concentration of NFL, Min [1, 8]: 4.9 pg/mL | concentration of NFL, Q1 [1, 8]: 12.2 pg/mL | concentration of NFL, Q3 [1, 8]: 28.1 pg/mL | concentration of NFL, Max [1, 9]: 74.9 pg/mL | concentration of NFL, Mean [1, 9]: 20.4 pg/mL | concentration of NFL, Median [1, 9]: 15.9 pg/mL | concentration of NFL, Min [1, 9]: 5.8 pg/mL | concentration of NFL, Q1 [1, 9]: 10.4 pg/mL | concentration of NFL, Q3 [1, 9]: 26.6 pg/mL | concentration of NFL, Max [1, 10]: 119 pg/mL | concentration of NFL, Mean [1, 10]: 19.3 pg/mL | concentration of NFL, Median [1, 10]: 14.3 pg/mL | concentration of NFL, Min [1, 10]: 4.9 pg/mL | concentration of NFL, Q1 [1, 10]: 9 pg/mL | concentration of NFL, Q3 [1, 10]: 20.4 pg/mL | new CE lesions in subjects with lower average levels of NFL ([2]; FIG. 1): fewer new CE lesions | new or enlarging T2 lesions in subjects with lower average levels of NFL ([2]; FIG. 2): fewer new or enlarging T2 lesions | EDSS in subjects with lower levels of NFL (trend) ([2]; FIG. 3): lower EDSS
